# From paper PMC9942197, “Mechanistic Insights into the Ene-Reductase-Catalyzed Promiscuous Reduction of Oximes to Amines” (ACS Catalysis, 2023)
# Columns and labels:
# OPR3 [1] = biological target: T1, OPR3 (Solanum lycopersicum, UniProt Q9FEW9); assay: stopped-flow pre-steady-state kinetics, oxidative half-reaction; assay type: biochemical; conditions: oxidative half-reaction of reduced enzyme; read-out: Kd oxime
# T1 construct: recombinant purified FMN ene-reductase; construct details in supplement
# Description: (§1) stopped-flow pre-steady-state kinetics, oxidative half-reaction on OPR3
# OPR3 [2] = biological target: T2, OPR3 (Solanum lycopersicum, UniProt Q9FEW9, Y190F); assay: as above; assay type: biochemical; conditions: oxidative half-reaction of reduced enzyme; read-out: Kd oxime
# T2 construct: recombinant purified FMN ene-reductase; construct details in supplement
# Description: as §1
# OPR3 [3] = biological target: T3, OPR3 (Solanum lycopersicum, UniProt Q9FEW9, Y370F); assay: as above; assay type: biochemical; conditions: oxidative half-reaction of reduced enzyme; read-out: Kd oxime
# T3 construct: recombinant purified FMN ene-reductase; construct details in supplement
# Description: as §1
# XenA [4] = biological target: T4, XenA (Pseudomonas putida, UniProt Q9R9V9); assay: X-ray crystal structure; assay type: binding; conditions: active site, oxidized flavin
# T4 construct: recombinant purified FMN ene-reductase, His-tagged (position differs from earlier reports)
# XenA [5] = biological target: T4, XenA; assay: stopped-flow pre-steady-state kinetics, oxidative half-reaction; assay type: biochemical; conditions: oxidative half-reaction of reduced enzyme; read-out: Kd oxime
# Description: stopped-flow pre-steady-state kinetics, oxidative half-reaction on XenA
# OPR3 [6] = biological target: T1, OPR3; assay: X-ray crystal structure; assay type: binding; conditions: active site, oxidized flavin
# XenA [7] = biological target: T4, XenA; assay: stopped-flow pre-steady-state kinetics, reductive half-reaction; assay type: biochemical; conditions: read-out: Kd NADPH; reductive half-reaction of oxidized enzyme
# Description: stopped-flow pre-steady-state kinetics, reductive half-reaction on XenA
# T4 sequence (Q9R9V9 entry or part of it): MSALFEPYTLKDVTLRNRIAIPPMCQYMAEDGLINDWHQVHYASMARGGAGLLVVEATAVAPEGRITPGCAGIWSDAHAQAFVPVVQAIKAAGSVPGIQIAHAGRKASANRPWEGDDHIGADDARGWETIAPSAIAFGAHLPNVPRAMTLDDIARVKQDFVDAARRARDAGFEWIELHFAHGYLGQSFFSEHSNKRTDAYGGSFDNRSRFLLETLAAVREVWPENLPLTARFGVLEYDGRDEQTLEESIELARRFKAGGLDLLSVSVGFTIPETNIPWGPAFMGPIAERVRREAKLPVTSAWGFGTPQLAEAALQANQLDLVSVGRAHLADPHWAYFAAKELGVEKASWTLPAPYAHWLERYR
# T1 sequence (Q9FEW9 whole entry): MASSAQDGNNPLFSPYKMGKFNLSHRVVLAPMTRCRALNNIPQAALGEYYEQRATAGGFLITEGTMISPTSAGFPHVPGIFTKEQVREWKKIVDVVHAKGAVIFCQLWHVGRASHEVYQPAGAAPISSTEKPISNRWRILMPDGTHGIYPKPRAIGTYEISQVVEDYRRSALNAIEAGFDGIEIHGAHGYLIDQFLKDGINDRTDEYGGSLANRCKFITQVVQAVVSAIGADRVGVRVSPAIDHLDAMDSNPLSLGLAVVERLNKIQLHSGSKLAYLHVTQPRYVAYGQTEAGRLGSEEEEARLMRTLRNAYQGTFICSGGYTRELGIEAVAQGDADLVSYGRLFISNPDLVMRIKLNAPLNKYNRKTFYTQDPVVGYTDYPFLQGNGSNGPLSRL
# T3 sequence (Q9FEW9 whole entry Y370F): as the sequence (Q9FEW9 whole entry) above, with Y370F counted along it
# T2 sequence (Q9FEW9 whole entry Y190F): as the sequence (Q9FEW9 whole entry) above, with Y190F counted along it
compound,measurement,setting,value
"CCOC(=O)C(=NO)C(C)=O [1a, oxime 1a]",Kd,OPR3 [1],79 ± 4 µM
same,Kd,OPR3 [2],69 ± 4 µM
same,Kd,OPR3 [3],37.4 ± 4.4 µM
same,X-ray crystal structure,XenA [4],(b) XenA/1a.
"CCOC(=O)C(=NO)C(=O)CC [1b, oxime 1b]",Kd,XenA [5],6430 ± 1570 µM
same,X-ray crystal structure,OPR3 [6],(c) OPR3/1b.
NC(=O)C1=CN([C@@H]2O[C@H](COP(=O)(O)OP(=O)(O)OC[C@H]3O[C@@H](n4cnc5c(N)ncnc54)[C@H](OP(=O)(O)O)[C@@H]3O)[C@@H](O)[C@H]2O)C=CC1 [NADPH],Kd,XenA [7],109 ± 5.1 µM
